In brackets after ≈: the same amount, converted by molar mass.
What was measured:
[1] = tested on: CCD 841 CoTr cells; assay: Nitric oxide (NOx) release in CCD 841 CoTr culture, Griess method; format: cell-based, human; settings: CCD 841 CoTr normal cells, 0–200 μg/mL, 24 h
Method: In this spectrophotometric method, the stable end products (nitrate and nitrite) were analyzed in the normal and tumor culture supernatants after 24 h of incubation of the cells with the cannabinoids in the concentration range of 0–200 μg/mL. The Griess reaction was applied. This method involves a 2-step reaction, whose product is a red-pink azo dye. The amount of this dye is directly proportional to the amount of NO. The cells were cultured for 24 h in 24-well plates (1 mL/well, density 1 × 10^5 cells/mL); next, after withdrawing the culture fluid, the tested cannabinoids were added to the wells at a volume of 1 mL/well and the incubation was carried out for another 24 h. After the incubation, the culture media were collected and frozen at −80 °C for no longer than 1 month. For calibration and quantitative analysis, the standard curve was prepared using 0.5–25 μM sodium nitrite (NaNO2). Thawed and centrifuged (5000 rpm/5 min.) supernatant samples and the standard were poured into a 96-well flat-bottomed plate at 100 µL/well. Each sample was analyzed in triplicate. Subsequently, 100 µL/well of Griess reagent (1% sulfanilamide/0.1% N-(1-naphthyl)ethylenediamine dihydrochloride) in 3% H3PO4 was added to all wells and incubated at room temperature for 10 min. Finally, the absorbance of the samples was spectrophotometrically read at 570 nm using an EL800 Universal Microplate Reader (BioTek Instruments, Winooski, VT, USA).

[2] = tested on: CCD 841 CoTr cells; assay: Flow cytometry (PI) cell cycle analysis of CCD 841 CoTr cells; format: cell-based, human; settings: 25 μg/mL, 24 h
Method: In the flow cytometric study, we assessed the impact of the cannabinoids at a concentration of 25 μg/mL on the distribution of cell cycle phases in the normal and cancer cells after 24 h incubation. Both adhered, and non-adsorbed (floating) cells were used to perform the analyses. They were collected after 24 h of incubation with the tested cannabinoids and centrifuged (3000 rpm/5 min.). Next, the cell pellet was rinsed and suspended in PBS w/o Ca^2+ and Mg^2+ ions and centrifuged again (3000 rpm/5 min.). The cell pellet was suspended and fixed in 70% ethanol (1 mL). Untreated cells served as a control. The cells were stored at −20 °C for 1 week. After that time, in accordance with the manufacturer protocol, the cells were subjected to the PI staining procedure (PI/RNase Staining Buffer, BD PharmingenTM, BD Biosciences, San Jose, CA, USA). Briefly, 1 mL of PBS w/o Ca^2+ and Mg^2+ ions was added to 1 mL of ethanol and incubated with gentle stirring for 5 min. at room temperature. Next, the cells were centrifuged (3000 rpm/5 min.) and suspended in PBS w/o Ca^2+ and Mg^2+ ions with gentle stirring for 5 min. at room temperature. The cells were centrifuged once again (3000 rpm/5 min.) and the cell pellet was suspended in 500 μL of PI/RNase Staining Buffer. The incubation was carried out for 15 min. at room temperature. Finally, the intensity of the PI fluorescence was measured using FACS Calibur (BD Pharmingen^TM). The obtained data were analyzed using Cell Quest Pro Version 6.0. for the Macintosh operating system (BD Pharmingen^TM). The percentage of cells in the appropriate phases of the cycle was calculated based on all analyzed gated cells. A total of 10,000 events were measured per sample.

[3] = tested on: HT29 cells; assay: MTT assay, metabolic activity of HT29 cells; format: cell-based; settings: Homo sapiens, HT-29; HT29 colon tumor cells, 24 h incubation; read-out: IC50 Values (MTT method)
Method: (§1) The HT29 cell line (ATCC no. HTB-38) (human colon adenocarcinoma) was used in the present study. Cells were cultivated in RPMI 1640 culture medium with 10% fetal calf serum (FCS) (GibcoTM, Paisley, UK), supplemented with antibiotics (100 U/mL penicillin and 100 μg/mL streptomycin) (Sigma, St. Louis, MO, USA). The cell culture was performed in standard conditions, i.e., at 37 °C in a humidified atmosphere with 5% CO2. The CCD 841 CoTr cell line (ATCC no. CRL-1807) (human normal colon epithelium) was cultivated in RPMI 1640 +DMEM (1:1) medium (Sigma, St. Louis, MO, USA) with 10% FCS and the addition of antibiotics. The culture was carried out at 34 °C in a 5% CO2/95% air atmosphere.
(§2) After seeding (1 × 10^5 cells/mL) in a 96-well plate, the cells were incubated for 24 h. Thereafter, the tested compounds (100 μL) at a concentration range of 0–200 μg/mL in the culture medium were added to the wells (100 μL). The incubation lasted for 24 h. After that time, an MTT solution (5 mg/mL, 25 μL/well) was added to each well. The incubation was continued for another 3 h. After the incubation, 10% sodium dodecyl sulfate (SDS) in 0.01 M HCl (100 μL) was added in order to dissolve the purple formazan crystals. Solubilization was carried out overnight. Finally, spectrophotometric measurement was performed at 570 nm using an EL800 Universal Microplate Reader (BioTek Instruments, Winooski, VT, USA).

[4] = tested on: HT29 cells; assay: Neutral Red (NR) uptake assay, viability of HT29 cells; format: cell-based; settings: Homo sapiens, HT-29; HT29 colon tumor cells, 24 h incubation
Method: as §1
(§3) After seeding (1 × 10^5 cells/mL) in a 96-well plate, the cells were incubated for 24 h. Thereafter, the tested compounds (100 μL) at a concentration range of 0–200 μg/mL in the culture medium were added to the wells (100 μL). The incubation lasted for 24 h. After that time, the culture medium was removed and a 0.4% Neutral Red solution in the culture medium was added to each well. The incubation was continued for another 3 h. After the incubation, the medium with the NR dye was discarded, and 4% paraformaldehyde in 1% CaCl2 was added for cell fixation (200 μL) and incubated for 3 min. Intracellular dye deposits were solubilized using 1% […] in a 50% ethanol solution (100 μL). The plates were then gently shaken (20 min.) at room temperature to dissolve and release the dye from the cells. Finally, spectrophotometric measurement was performed at 540 nm using an EL800 Universal Microplate Reader (BioTek Instruments, Winooski, VT, USA).

[5] = tested on: CCD 841 CoTr cells; assay: Neutral Red (NR) uptake assay, viability of CCD 841 CoTr cells; format: cell-based; settings: Homo sapiens; CCD 841 CoTr colon normal cells, 24 h incubation
Method: as §1, §3

[6] = Flow cytometry annexin V-FITC/PI, cell death types in CCD 841 CoTr cells; format: cell-based, human; settings: human, CCD 841 CoTr cells (normal cells), read-out: Percentage of viable cells
Method: (§4) In a further flow cytometric study measuring normal and tumor cell death types, the cells were exposed to the cannabinoids at a concentration of 25 μg/mL for 24 h.
(§5) The annexin V-fluorescein isothiocyanate (FITC)/propidium iodide (PI) apoptosis kit (BD Biosciences, BD Pharmingen™, San Jose, CA, USA) was used for the quantitative analysis of cannabinoid-induced cell death.
(§6) For the analyses, both adhered (after detaching the cells with 10 mM EDTA in PBS w/o Ca^2+ and Mg^2+ ions solution) and floating cells were collected after 24 h of incubation with the tested cannabinoids. After collection, the cells were gently centrifuged (1000 rpm/5 min.). Next, the supernatant was discarded, and the cell pellet was suspended in warm PBS w/o Ca^2+ and Mg^2+ ions and incubated for 5 min. at room temperature. The centrifugation procedure was repeated again and, following the manufacturer’s procedure, the cells were suspended in 100 μL of 1X Annexin V Binding Buffer with 5 μL of FITC Annexin V […] and 5 μL of propidium iodide (PI) (5 mM). The preparation was gently vortexed and incubated at room temperature for 15 min. in the dark. After that time, the cells were subjected to cytometric analysis. Before dosing the cells into the cytometer, 400 μL of 1X Binding Buffer was added. The cells were analyzed using a flow cytometer (BD FACSCalibur) with CellQuest Pro Version 6.0 software within 1 h after the staining was completed.

[7] = tested on: CCD 841 CoTr cells; assay: as above; format: cell-based, human; settings: 25 μg/mL, 24 h
Method: as §4, §5, §6

[8] = tested on: CCD 841 CoTr cells; assay: MTT assay, metabolic activity of CCD 841 CoTr cells; format: cell-based, human; settings: Homo sapiens, CCD-841, 24 h, CCD 841 CoTr colon normal cells, 24 h incubation; read-out: IC50 Values (MTT method)
Method: as §1, §2

[9] = tested on: HT29 cells; assay: Flow cytometry annexin V-FITC/PI, cell death types in HT29 cells; format: cell-based, human; settings: HT29, 25 μg/mL, 24 h
Method: as §4, §5, §6

Structure (SMILES): C=C(C)[C@@H]1CCC(C)=C[C@H]1c1c(O)cc(CCCCC)cc1O [CBD, cannabidiol]
- Effect on release of nitric oxide NOx (in words) [1]: increase in NOx levels with increasing concentration
- Increase in the number of cells in the sub-G1 phase compared to the control [2]: 21.88%
- Percentage of cells in G1 phase [2]: 21.89 ± 0.34 %
- Percentage of cells in G2 phase [2]: 14.10 ± 0.19 %
- Percentage of cells in S phase [2]: 16.39 ± 0.04 %
- Percentage of cells in sub-G1 phase [2]: 44.01 ± 0.37 %
- IC50 [3]: 57.5 µg/mL (≈ 183 µM)
- IC50 [4]: 60.5 µg/mL (≈ 192 µM)
- IC50 [5]: 48.2 µg/mL (≈ 153 µM)
- viability at 24 h, 25 μg/mL [6]: 79.4 ± 1.18%
- Cells in late apoptosis, more than in the control [7]: 11.36%
- Cells in necrosis, more than in the control [7]: 1.43%
- Percentage of cells in early apoptosis [7]: 1.97 ± 0.19%
- Percentage of cells in late apoptosis [7]: 16.96 ± 1.26 %
- Percentage of cells in necrosis [7]: 1.71 ± 0.28 %
- Reduction in the number of viable normal cells compared to the control [7]: 12.95%
- IC50 [8]: 42.6 µg/mL (≈ 135 µM)
- Percentage of cells in early apoptosis [9]: 0.77 ± 0.21%
- Percentage of cells in late apoptosis [9]: 17.03 ± 0.29 %
- Percentage of cells in necrosis [9]: 0.67 ± 0.22%
- Reduction in the number of viable cells compared to the control [9]: 13.62%
- viability at 25 µg/mL ([9]; Homo sapiens, HT-29, read-out: Percentage of viable cells): 81.54 ± 0.28%

From paper PMC11475369, “Exploring the Potential of Synthetic Cannabinoids: Modulation of Biological Activity of Normal and Cancerous Human Colon Epithelial Cells” (Cells, 2024)
